Data set [1] in a line: Krafft temperature (Tk) by visual examination and DSC of molecule/water systems. It counts as physicochemical. The conditions noted are these: in water; observation and DSC; average ± SD of at least two measurements. From the text: (§1) Water solubility reflects the ability of a particular molecule to dissolve and its interaction with water. To characterize the water solubility of most amphiphile molecules, especially the ionic surfactants, the Krafft point (Tk) is often used, referring to the critical temperature above which micelles form or the melting point of the hydrated solid surfactant. Two general approaches were used to measure the Tks of the molecules investigated herein: (1) a visual examination of the dissolution phenomenon for binary molecule/water systems, and (2) a quantitative measurement by using differential scanning calorimetry (DSC) analysis. The visual observation procedure is detailed below. We start with adding the molecule into 5–50 mL water, in a concentration range between 10^−2 mM and 10^3 mM (corresponding to a range of a surfactant mass concentration well below 20%), keeping the suspension under stirring for a certain time at room temperature (RT). Consequently, molecules can be classified into two major types: those soluble in water at RT and others insoluble at RT, with the solubility limit being called S (expressed in mM). The aspect of the sample, either transparent or turbid, is determined by direct visual examination. Tk determination with DSC is particularly applicable in the case of molecules insoluble at RT, for which a concentrated binary molecule/water mixture with a mass fraction of 20% of each molecule (C >> CMC in most cases) was prepared at 65 °C under stirring for 30 min to obtain a homogeneous system. These pre-homogenized aqueous systems were cooled and conserved in a refrigerator at 4 °C for a suitable period (>7 days), during which equilibrated hydrated crystals formed and precipitated. Then, for each molecule, about a 200–400 mg crystal sample was taken and put into the calorimeter cell. The first equilibrium phase was programmed at 4 °C for 1 h, followed by a slow heating stage from 4 °C to 65 °C at a rate of 0.5 °C/min. Tk was determined based on the location of the endothermic peak on the DSC curve, if any. All agitations were performed using a standard magnetic hotplate stirrer, MR 3001K (Heidolph Instruments, Schwabach, Germany). DSC curves were obtained from a commercial µDSC7 evo calorimeter (SETARAM Instrumentation, Caluire-et-Cuire, France). Tks are reported as the averages of at least two measurements as well as their standard deviations.

Data set [2] can be described thus: Equilibrium surface tension, Wilhelmy plate method (CMC, γcmc, Amin and derived quantities). The format is physicochemical. The conditions noted are these: for Amin: from Gibbs adsorption equation. Here is the method:
CMCs are determined from the inflections in the plots of equilibrium surface tension against the logarithm of the concentration. For the interested reader, the Gibbs-free energy of micellization, ΔGmic, the Gibbs-free energy of adsorption, ΔGads, and the efficiency of surfactant adsorption pC20 were calculated based on their definitions, as presented in Table 2.
The surface activity reflects the amphiphiles’ adsorption behavior on the air–aqueous solution interface. The surface tension (γ) was obtained using the Wilhelmy plate method with a K100 Processor Tensiometer (KRUSS, Hamburg, Germany). Both the critical micellar concentration (CMC) and equilibrium surface tension at the CMC (γcmc) were derived from the typical plot of surface tension (γ) against the logarithm of concentration (Log C). The surface excess (Γmax) and minimal area per molecule at the air–aqueous solution interface (Amin) at different temperatures were calculated from the Gibbs adsorption equation [3, 46]:(2) Γmax=−1/2.303RT(dγ/dlogc) and (3) Amin=10^20/NAΓmax where R is the ideal gas constant, 8.31 J∙mol^−1∙K^−1; T is the measuring temperature, K; γ is the surface tension, N/m; c is the concentration, mol.L^−1; Amin is the minimal area per molecule, Å^2, and NA is Avogadro’s number, 6.022·10^23 mol^−1.
For each molecule, several solutions of a wide range of concentrations were prepared. Before measuring, each solution was finely homogenized with the help of a magnetic stirring bar. The stirring time was fixed at 30 min in all cases. […] Then, measurements were performed once for each concentration, at the solution preparation’s temperature, with an uncertainty of ±1 °C.

Data set [3] in a line: Water solubility limit by visual examination (transparent/turbid). The format is physicochemical. The conditions noted are these: water, water; for solubility: thermodynamic from solid, read-out: Solubility Limit (S/mM).
Text: as §1, with “We start with adding the molecule into 5–50 mL water, in a concentration range between 10^−2 mM and 10^3 mM (corresponding to a range of a surfactant mass concentration well below 20%), keeping the suspension under stirring for a certain time at room temperature (RT).” left out

For data set [4] the following is noted: cited from earlier work.
Setting [5] is: at 25 °C, mixture of α and β anomers.

Molecules are shown by their SMILES. Values after ≈ are worked out from the molar mass of the structure shown. Values joined by “and” are separate entries in the source; they are usually repeats but may differ in a detail not shown here. Equal entries are not always repeated. Where two headings read alike, the source gives them in different places. Bounds are passed on as bounds.

Turning to `CCCCCCOC(=O)[C@H]1O[C@H](OC)[C@H](O)[C@@H](O)[C@@H]1O` [MeαGlc(C=O)OC6], the “Tk (Krafft temperature)” value in data set [1] is <4 °C. In data set [2] (T = 25 °C), the C20 came out at 5.9 mM, the pC20 worked out at 2.2, the ΔGads is -5.9 kcal/mol and the ΔGmic is -3.6 kcal/mol. Besides, the Amin in data set [2] (T = 25 °C) is on record as 39.2 ± 2.9 Å^2/molecule. In data set [2] (T = 25 °C (T > Tk)), this molecule displayed a CMC of 55 ± 5 mM and a γcmc of 30.8 ± 0.8 mN/m. In data set [3] (at RT), the solubility was ≤ 50 mM.

For `CCCCCCCCOC(=O)[C@H]1O[C@@H](OC)[C@H](O)[C@@H](O)[C@H]1O` [MeβGal(C=O)OC8, methyl octyl galacturonate], the “Tk (Krafft temperature)” value in data set [1] is 31.6 ± 0.9 °C. For the same molecule, in data set [2] (T = 40 °C), the C20 is on record as 1.2 mM, the pC20 is reported as 2.9, the ΔGads is -7.4 kcal/mol and the ΔGmic was -5.0 kcal/mol. The molecule also yielded an Amin in data set [2] (T = 40 °C) of 42.9 ± 3.9 Å^2/molecule. In data set [2] (T = 40 °C (T > Tk)), this molecule yielded a CMC of 6.9 ± 0.4 mM and a γcmc of 29.4 ± 0.36 mN/m. In addition, the “Solubility Limit (S/mM)” value in data set [3] (at RT) is “insoluble”. In addition, in data set [3] (at T > Tk), the “Solubility Limit (S/mM)” value is “high solubility limits” and the solubility was > 100 mM.

For the molecule `CCCCCCCCOC(=O)[C@@H](O)[C@@H](O)[C@H](O)[C@@H](O)C=O` [octyl D-glucuronate], the CMC in data set [4] (setting [5]) is 10.7 mM; in data set [4] (ref 17), 10.68 mM.

As to `CCCCCCCCOC(=O)[C@H]1O[C@H](OC)[C@H](O)[C@@H](O)[C@@H]1O` [MeαGlc(C=O)OC8, methyl octyl α-D-glucuronate], the “Tk (Krafft temperature)” value in data set [1] is <4 °C. In addition, in data set [2] (T = 25 °C), the C20 amounted to 0.5 mM, the pC20 came out at 3.3, the ΔGads was -7.3 kcal/mol and the ΔGmic was -4.8 kcal/mol. In data set [2] (T = 25 °C), this molecule showed an Amin of 41 ± 1 Å^2/molecule. In data set [2] (T = 25 °C (T > Tk)), the CMC is 6 mM and 6 ± 0.5 mM; the γcmc turned out to be 29.2 ± 0.35 mN/m. In addition, the solubility in data set [3] (at RT) lay in the range of 15 to 20 mM (≈ 4810 to 6410 µg/mL).

Turning to `CCCCCCCCCCOC(=O)[C@H]1O[C@H](OC)[C@H](O)[C@@H](O)[C@@H]1O` [MeαGlc(C=O)OC10], the “Tk (Krafft temperature)” value in data set [1] was <4 °C. For the same molecule, in data set [2] (T = 25 °C), the C20 is 0.05 mM, the pC20 is recorded as 4.3, the ΔGads was -8.6 kcal/mol and the ΔGmic was -5.9 kcal/mol. The same molecule gave an Amin in data set [2] (T = 25 °C) of 42.4 ± 2 Å^2/molecule. In data set [2] (T = 25 °C (T > Tk)), this molecule came in with a CMC of 0.65 ± 0.5 mM and a γcmc of 28.1 ± 0.1 mN/m. Moreover, the solubility in data set [3] (at RT) lay within 0.5 to 0.75 mM (≈ 174 to 261 µg/mL).

Regarding `CCCCCC(=O)OC[C@H]1O[C@H](OC)[C@H](O)[C@@H](O)[C@@H]1O` [MeαGlcO(C=O)C5, Methyl 6-O-hexanoyl-α-D-glucopyranoside], the “Tk (Krafft temperature)” value in data set [1] is <4 °C. For the same molecule, in data set [2] (T = 25 °C), the C20 is reported as 11.2 mM, the pC20 is on record as 2.0, the ΔGads is -5.6 kcal/mol and the ΔGmic is -3.3 kcal/mol. In addition, in data set [2] (T = 25 °C), the Amin turned out to be 40.1 ± 0.3 Å^2/molecule. In addition, in data set [2] (T = 25 °C (T > Tk)), the CMC is recorded as 105 ± 5 mM and the γcmc was 31 ± 0.1 mN/m. Moreover, the solubility in data set [3] (at RT) is < 40 mM.

In the case of `CCCCCCCC(=O)OC[C@H]1O[C@@H](OC)[C@H](O)[C@@H](O)[C@H]1O` [MeβGalO(C=O)C7, Methyl 6-O-octanoyl-β-D-galactopyranoside], the “Tk (Krafft temperature)” value in data set [1] is <4 °C. In addition, in data set [2] (T = 25 °C), the C20 turned out to be 0.7 mM, the pC20 is 3.1, the ΔGads is -7.3 kcal/mol and the ΔGmic is -4.6 kcal/mol. In data set [2] (T = 25 °C), this molecule came in with an Amin of 42.7 ± 2.4 Å^2/molecule. In data set [2] (T = 25 °C (T > Tk)), this molecule returned a CMC of 8.5 ± 0.5 mM and a γcmc of 28.3 ± 0.35 mN/m. Moreover, in data set [3] (at T > Tk), the “Solubility Limit (S/mM)” value was “high solubility limits”. For the same molecule, the solubility in data set [3] (at RT) was > 100 mM.

Consider `CCCCCCCC(=O)OC[C@H]1O[C@H](OC)[C@H](O)[C@@H](O)[C@@H]1O` [MeαGlcO(C=O)C7, Methyl 6-O-octanoyl-α-D-glucopyranoside], for which, in data set [1], the “Tk (Krafft temperature)” value is <4 °C. For the same molecule, in data set [2] (T = 25 °C), the C20 is 1.0 mM, the pC20 came out at 3.0, the ΔGads is -6.9 kcal/mol and the ΔGmic is -4.5 kcal/mol. The Amin in data set [2] (T = 25 °C) is 39 ± 2 Å^2/molecule. Besides, in data set [2] (T = 25 °C (T > Tk)), the CMC was 9.8 mM and 9.8 ± 0.76 mM; the γcmc is 29.5 ± 0.5 mN/m. Moreover, the solubility in data set [3] (at RT) was ≤ 10 mM. Also, the solubility in data set [3] (at T > Tk) is < 10 mM.

In the case of `CCCCCCCCCC(=O)OC[C@H]1O[C@H](OC)[C@H](O)[C@@H](O)[C@@H]1O` [MeαGlcO(C=O)C9, Methyl 6-O-decanoyl-α-D-glucopyranoside], the “Tk (Krafft temperature)” value in data set [1] came out at 26.5 ± 0.2 °C. In data set [2] (T = 30 °C), the C20 is recorded as 0.08 mM, the pC20 was 4.1, the ΔGads is -8.4 kcal/mol and the ΔGmic was -5.8 kcal/mol. For the same molecule, the Amin in data set [2] (T = 30 °C) is 41.8 ± 0.9 Å^2/molecule. Besides, in data set [2] (T = 30 °C (T > Tk)), the CMC came to 0.92 ± 0.08 mM and the γcmc is given as 27.9 ± 0.05 mN/m. Further, in data set [3] (at RT), the “Solubility Limit (S/mM)” value is listed as “insoluble”. In addition, in data set [3] (at T > Tk), the solubility was ≤ 1 mM.

With `CCCCCCCC(=O)O[C@H]1[C@H](O)[C@@H](CO)OC(O)[C@@H]1O` (stereo partly drawn) [3-O-octanoyl-D-glucopyranose], the CMC in data set [4] (mixture of α and β anomers) is listed as 0.61 mM; in data set [4] (ref 21), 1.6 mM.

`CCCCCCCC(=O)OC1O[C@H](CO)[C@@H](O)[C@H](O)[C@H]1O` (stereo partly drawn) [D-glucosyl octanoate]: the CMC in data set [4] (setting [5]) is recorded as 19.1 mM.

The record behind these values is PMC11123692, “Sugar-Based Surfactants: Effects of Structural Features on the Physicochemical Properties of Sugar Esters and Their Comparison to Commercial Octyl Glycosides” (Molecules, 2024).
